Test results published in US20220154156A1, “PROTEINS AND METHODS FOR DISRUPTING BACTERIAL COMMUNICATION” (REGENTS OF THE UNIVERSITY OF MINNESOTA, priority 2019, published 2022).
Like-named read-outs stand apart in the source and are kept apart here.

Columns and labels:
[1] = system: Geobacillus caldoxylosilyticus lactonase GcL, wild type, SEQ ID NO: 1; assay: Lactonase assay (pH indicator, cresol purple) of GcL wt; type: biochemical; conditions: 25° C., pH 8.3; Table 4, substrates without asterisk
Protocol: (§1) Kinetic measurements. The determination of GcL catalytic efficiency was performed by using a microplate reader (Synergy HTX, BioTek, USA) and the software Gen5.1 over a range of substrates (FIG. 2). The reactions were operate in a 96-well plate at a path length of 5.8 mm for a 200 μl reaction volume at room temperature. The catalytic parameters were achieved by fitting the data to Michaelis-Menten equation with the Graph-Pad Prism 5 software. When, Vmax was not reached, the catalytic efficiency was determined by fitting the linear part of Michaelis-Menten plot to a linear regression using Graph-Pad Prism 5.
(§2) Lactonase assay. The AHL lactonolysis consisting in the opening of the lactone ring generates a proton, and leads to an acidification of the media. This property allowed the characterization of the lactonases by using a pH indicator assay. To perform the experiment 5 μl of enzyme were added to a solution containing 10 μl of substrates at various concentrations and 185 μl of lactonase buffer (2.5 mM Bicine pH 8.3, 150 mM NaCl, 0.2 mM CoCl2, 0.2 mM cresol purple, 0.5% DMSO). This assay was performed at 25° C. and the time course of the lactones hydrolysis was recorded at 577 nm. The characterization of the enzyme was proceeding against a large panel of AHLs: C4-AHL, C6-AHL, C8-AHL, C10-AHL, 3-oxo-C8-AHL and against γ-Butyrolactone, γ-Heptalactone, γ-Nonalactone, γ-Decanolactone, δ-Valerolactone, δ-Octanolactone, δ-Nonalactone, δ-Decalactone, ε-Caprolactone, ε-Decalactone, Whiskey lactone.

[2] = system: Geobacillus caldoxylosilyticus GcL (SEQ ID NO: 1) variant GcL 14 (Q41P/S66A/S81A/T91S/R111K/F141/A144T/C147S/V1751/H178D/I182L/L183E/M244A/N245K); assay: Lactonase assay of variant GcL 14; type: biochemical; conditions: for catalytic proficiency compared with the wt enzyme: GcL 14 vs GcL wt
[3] = system: Geobacillus caldoxylosilyticus GcL (SEQ ID NO: 1) variant GcL 4 (C147S/H178D/L183E/M244A); assay: Lactonase assay of variant GcL 4; type: biochemical; conditions: for catalytic proficiency compared with the wt enzyme: GcL 4 vs GcL wt
Protocol: as §1, §2
We determined the ability of these two variants to hydrolyze a wide range of lactones as substrates, using the assay described in the previous chapter. GcL 4 was assayed against substrates C4 AHIL, C8 AHIL, 3-oxo-C8 AHL, 3-oxo-C12 AHL, γ-Butyrolactone, γ-Nonalactone, γ-Decanolactone, δ-Valerolactone, δ-Octanolactone, δ-Decalactone, ε-Caprolactone, ε-Decalactone and Whiskey Lactone, while GcL […] was assayed against C4 AHL, C8 AHL, 3-oxo-C8 AHL, 3-oxo-C12 AHIL, γ-Butyrolactone, γ-Heptalactone, γ-Nonalactone, γ-Decanolactone, δ-Valerolactone, δ-Nonalactone, δ-Decalactone, ε-Caprolactone, ε-Decalactone and Whiskey Lactone (Table 6).

[4] = system: Geobacillus caldoxylosilyticus lactonase GcL, wild type, SEQ ID NO: 1; conditions: cited from earlier work
[5] = system: corrosion tubercles on steel coupons; assay: Biocorrosion of coated steel coupons in Duluth-Superior Harbor water, 8 weeks; parameters: concentration or dose not given beside the values; conditions: silica gel coating, two months in DSH water
Protocol: The steel coupons were washed with soap water, lightly brushed for a few seconds with a test tube brush, and then rinsed with Milli-Q water to remove any loose material. Each coupon was designated with a unique number and weighed before being randomly assigned to a specific experimental treatment.
Each compound or enzyme was added to 5 ml of the silica gel matrix to develop different coating treatments. These coatings were applied by dipping coupons into the appropriate gel mixture for 1 minute, and then the coating on the coupon surface was air-dried at room temperature for 2 hours.
Six treatments and three controls were investigated for corrosion rate and changes in bacterial communities (Table 10). Each treatment or control contained three replicate steel coupons. After the triplicate steel coupons were coated with each biochemical, enzyme or bacterial treatment, they were incubated in experimental microcosms constructed from 10-gallon glass aquaria (Aqueon Glass, 50.8 cm×25.4 cm×30.5 cm) (FIG. 24). Each microcosm was equipped with an aquarium pump (Aquarium Systems Mini-Jet 404) to constantly circulate the water (˜2 L hr−1), and covered with a piece of acrylic with one corner cut out to allow gas exchange. The coupons were hold with plastic holders and immersed in water taken from the DSH for 8 weeks and then recovered for analyses.
The coupons in each treatment was photographed by the end of the experiment. Biocorrosion was evaluated by the number and coverage of corrosion tubercles, and also by imaging of coupon surfaces with an environmental scanning electron microscope (ESEM). The coupon images were captured with DSLR camera immediately after being removed from the harbor water, and then tubercle numbers and total area in digital images were measured using the analyze menu within ImageJ software (NIH, Bethesda, Md., USA). Surface roughness measurements were also made after the exposed coupons were cleaned with ASTM G1-90 iron and steel chemical cleaning procedure (2 min in 37% HCl, 50 g/L SnCl2). A Hitachi TM-3030 ESEM was used to view details of the cleaned coupon surface and the 3D-View software was used to generate surface roughness measurements (SRa). Statistics analysis (T-tests) of the tubercle numbers, coverage and surface roughness were performed using Microsoft Excel software.

[6] = Paraoxonase activity of SsoPox variants after incubation at 80° C.; type: physicochemical; conditions: compared with wt enzyme and SsoPox W263I
[7] = Enzymatic characterization of SsoPox 6 and SsoPox 19; type: biochemical; conditions: esters, lactones and phosphotriesters; compared with wt
Description: We determined the ability of these two variants to hydrolyze a wide range of substrates, including esters, lactones and phosphotriesters (FIG. 23).

[8] = Table 4, substrates marked *, Data from^17

| Molecule | Km [1] [µM] | kcat [1] [s⁻¹] | Km ([2]; GcL 14, Table 6) [µM] | kcat ([2]; GcL 14, Table 6) [s⁻¹] | Km ([3]; GcL 4, Table 6) [µM] | kcat ([3]; GcL 4, Table 6) [s⁻¹] | further results |
| --- | --- | --- | --- | --- | --- | --- | --- |
| CCCC1CCC(=O)O1 (centres unmarked) [γ-Heptalactone] | 2.01 ± 0.71 | 1.77 ± 0.06 | 2.77 ± 0.53 | 20.95 ± 0.93 | – | – | – |
| CCCCCC(=O)CC(=O)N[C@H]1CCOC1=O [3-oxo-C8-AHL] | – | – | 0.29 ± 0.08 | 76.00 ± 4.04 | 1.09 ± 0.28 | 76.4 ± 3.87 | Km [4, 8]: 2.19 ± 0.37 µM; kcat [4, 8]: 9.48 ± 0.35 s⁻¹ |
| O=C1CCCCO1 [δ-Valerolactone] | 5.67 ± 0.94 | 1.27 ± 0.03 | 1.12 ± 0.12 | 22.13 ± 0.41 | 3.13 ± 0.1 | 11.94 ± 1.03 | – |
| CCCCC1CCCC(=O)O1 (centres unmarked) [δ-Nonalactone] | 8.05 ± 2.5 | 2.01 ± 0.14 | 9.09 ± 2.2 | 23.61 ± 1.40 | – | – | – |
| CCCCC1CCCCC(=O)O1 (centres unmarked) [ε-Decalactone] | 1.05 ± 0.38 | 1.01 ± 0.04 | 7.98 ± 2.47 | 10.41 ± 0.85 | 1.41 ± 0.3 | 6.3 ± 0.29 | catalytic proficiency compared with the wt enzyme [3]: similar; catalytic proficiency compared with the wt enzyme [2]: similar |
| CCCCCCCCCC(=O)NC1CCOC1=O (centres unmarked) [C10-AHL] | – | – | – | – | – | – | Km [4, 8]: 1.45 ± 0.47 µM; kcat [4, 8]: 5.48 ± 0.37 s⁻¹ |
| CCCCCCCC(=O)N[C@H]1CCOC1=O [C8-AHL] | 3.12 ± 0.75 | 1.29 ± 0.04 | 1.32 ± 0.34 | 18.38 ± 0.86 | 0.81 ± 0.2 | – | – |
| CCCCCC(=O)N[C@H]1CCOC1=O [C6-AHL] | – | – | – | – | – | – | Km [4, 8]: 7.97 ± 1.89 µM; kcat [4, 8]: 8.95 ± 0.48 s⁻¹ |
| CCCCCC1CCCC(=O)O1 (centres unmarked) [δ-Decalactone] | 3.13 ± 0.9 | 4.1 ± 0.18 | 0.32 ± 0.14 | 13.7 ± 0.73 | 5.54 ± 0.13 | 10.28 ± 0.76 | catalytic proficiency compared with the wt enzyme [3]: similar; catalytic proficiency compared with the wt enzyme [2]: similar |
| O=C1CCCCCO1 [ε-Caprolactone] | 10.6 ± 3.2 | 8.79 ± 0.43 | 2.49 ± 0.67 | 23.74 ± 1.26 | 1.3 ± 0.49 | 12.63 ± 0.95 | – |
| CCCC(=O)N[C@H]1CCOC1=O [C4-AHL] | – | – | 0.92 ± 0.27 | 15.01 ± 0.61 | 0.75 ± 0.24 | 18.25 ± 0.85 | Km ([3]; GcL 4): ~1 µM; Km ([2]; GcL 14): ~1 µM; Km [4, 8]: 229 ± 57 µM; kcat [4, 8]: 19.06 ± 1.51 s⁻¹; Km ([4]; wt enzyme, C4 AHL marked * (ref 17) in Table 4): ~230 µM |
| CCCC1CCCC(=O)O1 (centres unmarked) [δ-Octanolactone] | 18.3 ± 7 | 12.58 ± 0.85 | – | – | 1.92 ± 0.54 | 22.01 ± 1.17 | – |
| CCCCCCCCCC(=O)CC(=O)N[C@H]1CCOC1=O [3-oxo-C12 AHL] | – | – | 0.5 ± 0.12 | 15.88 ± 0.45 | – | – | – |
| CCCCCC1CCC(=O)O1 (centres unmarked) [γ-Nonalactone] | 11.6 ± 3.1 | 18.14 ± 0.9 | 9.09 ± 2.2 | 23.61 ± 1.40 | 2.54 ± 0.97 | 18.3 ± 0.90 | catalytic proficiency compared with the wt enzyme [3]: similar; catalytic proficiency compared with the wt enzyme [2]: similar |
| CCCCCCC1CCC(=O)O1 (centres unmarked) [γ-Decanolactone] | 7.14 ± 1.03 | 2.69 ± 0.11 | 0.32 ± 0.14 | 13.7 ± 0.73 | 1.31 ± 0.28 | 22.24 ± 1.10 | – |
| [Mg+2].[O-][O-] [magnesium peroxide] | – | – | – | – | – | – | reduction of the number (formation) of corrosion tubercles [5]: 36% |
| O=C1CCCO1 [γ-Butyrolactone] | 21.1 ± 7.6 | 2.49 ± 0.15 | 5.9 ± 1.67 | 9.89 ± 0.75 | 1.99 ± 0.45 | 8.42 ± 0.42 | – |
| CCCCC1OC(=O)CC1C (centres unmarked) [Whiskey lactone] | 0.67 ± 0.21 | 9.34 ± 0.39 | 14 ± 3.74 | 7.98 ± 0.63 | – | 8.4 ± 0.39 | catalytic proficiency compared with the wt enzyme [3]: similar; catalytic proficiency compared with the wt enzyme [2]: similar |
| SsoPox 6: SsoPox variant R2K/S10E/S13P/K14R/V91I/L107N, SEQ ID NO:12 (protein, SsoPox6 variant) MKIPLVGKDEIEPRDIGFTLIHEHLRVFSEAVRQQWPHLYNEDEEFRNAVNEVKRAMQFGVKTIVDPTVMGLGRDIRFMEKVVKATGINLIAGTGIYIYIDLPFYFNNRSIDEIADLFIHDIKEGIQGTLNKAGFVKIAADEPGITKDVEKVIRAAAIANKETKVPIITHSNAHNNTGLEQQRILTEEGVDPGKILIGHLGDTDNIDYIKKIADKGSFIGLDRYGLDLFLPVDKRNETTLRLIKDGYSDKIMISHDYCCTIDWGTAKPEYKPKLAPRWSITLIFEDTIPFLKRNGVNEEVIATIFKENPKKFFS | – | – | – | – | – | – | paraoxon hydrolysis after incubation of different times at 80° C. [6]: withstanding better the incubation at 80 °C than the wt enzyme and SsoPox W263I; activity levels [7]: extremely similar to those of the wt enzyme |
| SsoPox 19: SsoPox variant with 19 node 55 mutations, SEQ ID NO:13 (protein, SsoPox19 variant) MKIPLVGKDEIEPREMGFTLIHEHLRVFSEAVRQQWPHLYNEDEEFRNAVNEVKTAMSYGVKTIVDPTVMGLGRDIRFMEKVVKATGINVIAATGIYIYTDLPFYFNNRSIDEIADLFIHDIKEGIQGTNNKAGFVKVAADEPGITKDVEKVIRAAAIAHKETKVPIITHSNAHNNTGLEQQRILMEEGVDPGKILIGHLGDTDNIDYIKKIADKGSFIGLDRYGLDLFLPVDKRNETTLKLIKDGYSDKIMISHDYCCTIDWGTAKPEYKPKLAPRWSITLIFEDTIPFLKRNGVNEEVIATIFKENPKKFFS | – | – | – | – | – | – | paraoxon hydrolysis after incubation of different times at 80° C. [6]: withstanding better the incubation at 80 °C than the wt enzyme and SsoPox W263I; activity levels [7]: extremely similar to those of the wt enzyme |
